According to PMC10408569, “Recruitment of hexahydroquinoline as anticancer scaffold targeting inhibition of wild and mutants EGFR (EGFR^WT, EGFR^T790M, and EGFR^L858R)” (Journal of Enzyme Inhibition and Medicinal Chemistry, 2023):

Key:
Assay in all cases: NCI-60 anticancer screening (SRB)
Assay type in all cases: cell-based
[1] = system: CCRF-CEM; settings: Homo sapiens, leukemia, one dose 10 μM, read-out: Growth Inhibition Percentage (GI %)
[2] = system: K-562; settings: Homo sapiens, K562; K-562, leukemia; one dose 10 μM; read-out: Growth Inhibition Percentage (GI %)
[3] = system: RPMI-8226; settings: Homo sapiens; RPMI-8226, leukemia; one dose 10 μM; read-out: Growth Inhibition Percentage (GI %)
[4] = system: SR; settings: Homo sapiens, leukemia, one dose 10 μM, read-out: Growth Inhibition Percentage (GI %)
[5] = system: A549/ATCC; settings: Homo sapiens; A549/ATCC, NSC lung cancer; one dose 10 μM; read-out: Growth Inhibition Percentage (GI %)
[6] = system: EKVX; settings: Homo sapiens, NSC lung cancer, one dose 10 μM, read-out: Growth Inhibition Percentage (GI %)
[7] = system: HOP-92; settings: Homo sapiens; HOP-92, NSC lung cancer; one dose 10 μM; read-out: Growth Inhibition Percentage (GI %)
[8] = system: NCI-H226; settings: Homo sapiens; NCI-H226, NSC lung cancer; one dose 10 μM; read-out: Growth Inhibition Percentage (GI %)
[9] = system: HCT-116; settings: Homo sapiens; HCT-116, colon cancer; one dose 10 μM; read-out: Growth Inhibition Percentage (GI %)
[10] = system: HCT-15; settings: Homo sapiens; HCT-15, colon cancer; one dose 10 μM; read-out: Growth Inhibition Percentage (GI %)
[11] = system: SF-268; settings: Homo sapiens; SF-268, CNS cancer; one dose 10 μM; read-out: Growth Inhibition Percentage (GI %)
[12] = system: SF-295; settings: Homo sapiens; SF-295, CNS cancer; one dose 10 μM; read-out: Growth Inhibition Percentage (GI %)
[13] = system: SF-539; settings: Homo sapiens; SF-539, CNS cancer; one dose 10 μM; read-out: Growth Inhibition Percentage (GI %)
[14] = system: SNB-19; settings: Homo sapiens; SNB-19, CNS cancer; one dose 10 μM; read-out: Growth Inhibition Percentage (GI %)
[15] = system: SNB-75; settings: Homo sapiens; SNB-75, CNS cancer; one dose 10 μM; read-out: Growth Inhibition Percentage (GI %)
[16] = system: U251; settings: Homo sapiens, U-251; U251, CNS cancer; one dose 10 μM; read-out: Growth Inhibition Percentage (GI %)
[17] = system: MALME-3M; settings: Homo sapiens, melanoma, one dose 10 μM, read-out: Growth Inhibition Percentage (GI %)
[18] = system: MDA-MB-435; settings: Homo sapiens; MDA-MB-435, melanoma; one dose 10 μM; read-out: Growth Inhibition Percentage (GI %)
[19] = system: SK-MEL-28; settings: Homo sapiens; SK-MEL-28, melanoma; one dose 10 μM; read-out: Growth Inhibition Percentage (GI %)
[20] = system: UACC-257; settings: Homo sapiens; UACC-257, melanoma; one dose 10 μM; read-out: Growth Inhibition Percentage (GI %)
[21] = system: IGROV1; settings: Homo sapiens, IGROV-1; IGROV1, ovarian cancer; one dose 10 μM; read-out: Growth Inhibition Percentage (GI %)
[22] = system: OVCAR-5; settings: Homo sapiens; OVCAR-5, ovarian cancer; one dose 10 μM; read-out: Growth Inhibition Percentage (GI %)
[23] = system: OVCAR-8; settings: Homo sapiens; OVCAR-8, ovarian cancer; one dose 10 μM; read-out: Growth Inhibition Percentage (GI %)
[24] = system: SK-OV-3; settings: Homo sapiens; SK-OV-3, ovarian cancer; one dose 10 μM; read-out: Growth Inhibition Percentage (GI %)
[25] = system: ACHN; settings: Homo sapiens, renal cancer, one dose 10 μM, read-out: Growth Inhibition Percentage (GI %)
[26] = system: PC-3; settings: Homo sapiens; PC-3, prostate cancer; one dose 10 μM; read-out: Growth Inhibition Percentage (GI %)
[27] = system: DU-145; settings: Homo sapiens; DU-145, prostate cancer; one dose 10 μM; read-out: Growth Inhibition Percentage (GI %)
[28] = system: MDA-MB-468; settings: Homo sapiens; MDA-MB-468, breast cancer; one dose 10 μM; read-out: Growth Inhibition Percentage (GI %)

Compound	inhibition at 10 µM [1] [%]	inhibition at 10 µM [2] [%]	inhibition at 10 µM [3] [%]	inhibition at 10 µM [4] [%]	inhibition at 10 µM [5] [%]	inhibition at 10 µM [6] [%]	inhibition at 10 µM [7] [%]	inhibition at 10 µM [8] [%]	inhibition at 10 µM [9] [%]	inhibition at 10 µM [10] [%]	inhibition at 10 µM [11] [%]	inhibition at 10 µM [12] [%]	inhibition at 10 µM [13] [%]	inhibition at 10 µM [14] [%]	inhibition at 10 µM [15] [%]	inhibition at 10 µM [16] [%]	inhibition at 10 µM [17] [%]	inhibition at 10 µM [18] [%]	inhibition at 10 µM [19] [%]	inhibition at 10 µM [20] [%]	also measured
CCOC(=O)C1=C(N)N(c2ccc(Cl)cc2)C2=C(C(=O)CC(C)(C)C2)C1c1cccnc1 (racemic) [12f, (±)-Ethyl 2-amino-1–(4-chlorophenyl)-7,7-dimethyl-5-oxo-4-(pyridin-3-yl)-1,4,5,6,7,8-hexahydroquinoline-3-carboxylate]	< 10	< 10	12	< 10	15	< 10	< 10	< 10	< 10	< 10	< 10	< 10	12	< 10	21	< 10	< 10	< 10	< 10	< 10	inhibition at 10 µM [21]: < 10%; inhibition at 10 µM [22]: < 10%; inhibition at 10 µM [23]: < 10%; inhibition at 10 µM [24]: < 10%; inhibition at 10 µM [25]: < 10%; inhibition at 10 µM [26]: < 10%; inhibition at 10 µM [27]: < 10%; inhibition at 10 µM [28]: < 10%
CCOC(=O)C1=C(N)N(c2ccc(C)cc2)C2=C(C(=O)CC(C)(C)C2)C1c1ccccc1Cl (racemic) [6b, (±)-Ethyl 2-amino-4–(2-chlorophenyl)-7,7-dimethyl-1–(4-methylphenyl)-5-oxo-1,4,5,6,7,8-hexahydroquinoline-3-carboxylate]	< 10	< 10	22	< 10	13	15	< 10	< 10	17	30	< 10	< 10	< 10	12	29	< 10	< 10	< 10	< 10	< 10	inhibition at 10 µM [21]: < 10%; inhibition at 10 µM [22]: < 10%; inhibition at 10 µM [23]: 20%; inhibition at 10 µM [24]: < 10%; inhibition at 10 µM [25]: < 10%; inhibition at 10 µM [26]: 43%; inhibition at 10 µM [27]: < 10%; inhibition at 10 µM [28]: 20%
CCOC(=O)C1=C(N)N(c2ccc(C)cc2)C2=C(C(=O)CC(C)(C)C2)C1c1ccc(OC)cc1 (racemic) [8g, (±)-Ethyl 2-amino-4–(4-methoxyphenyl)-7,7-dimethyl-1–(4-methylphenyl)-5-oxo-1,4,5,6,7,8-hexahydroquinoline-3-carboxylate]	< 10	< 10	< 10	< 10	< 10	< 10	< 10	< 10	< 10	< 10	< 10	< 10	< 10	< 10	13	< 10	< 10	< 10	< 10	< 10	inhibition at 10 µM [21]: < 10%; inhibition at 10 µM [22]: < 10%; inhibition at 10 µM [23]: < 10%; inhibition at 10 µM [24]: < 10%; inhibition at 10 µM [25]: < 10%; inhibition at 10 µM [26]: < 10%; inhibition at 10 µM [27]: < 10%; inhibition at 10 µM [28]: < 10%
CCOC(=O)C1=C(N)N(c2ccc(Cl)cc2)C2=C(C(=O)CC(C)(C)C2)C1c1ccc([N+](=O)[O-])cc1 (racemic) [8k, (±)-Ethyl2-amino-1–(4-chlorophenyl)-7,7-dimethyl-4–(4-nitrophenyl)-5-oxo-1,4,5,6,7,8-hexahydroquinoline-3-carboxylate]	< 10	26	43	32	11	15	< 10	15	34	18	< 10	< 10	< 10	< 10	< 10	< 10	< 10	< 10	< 10	< 10	inhibition at 10 µM [21]: < 10%; inhibition at 10 µM [22]: < 10%; inhibition at 10 µM [23]: 12%; inhibition at 10 µM [24]: < 10%; inhibition at 10 µM [25]: 12%; inhibition at 10 µM [26]: 26%; inhibition at 10 µM [27]: < 10%; inhibition at 10 µM [28]: 18%
CCOC(=O)C1=C(N)N(c2ccc(Cl)cc2)C2=C(C(=O)CC(C)(C)C2)C1c1ccccn1 (racemic) [12c, (±)-Ethyl 2-amino-1–(4-chlorophenyl)-7,7-dimethyl-5-oxo-4-(pyridine-2-yl)-1,4,5,6,7,8-hexahydroquinoline-3-carboxylate]	< 10	< 10	< 10	< 10	< 10	< 10	< 10	< 10	13	12	< 10	< 10	< 10	< 10	< 10	< 10	< 10	< 10	< 10	< 10	inhibition at 10 µM [21]: < 10%; inhibition at 10 µM [22]: < 10%; inhibition at 10 µM [23]: < 10%; inhibition at 10 µM [24]: < 10%; inhibition at 10 µM [25]: < 10%; inhibition at 10 µM [26]: 19%; inhibition at 10 µM [27]: < 10%; inhibition at 10 µM [28]: < 10%
